Assays:
[1] = test system: proliferating cancer and non-cancer cells and viral-infected cells; assay: Salicinium uptake into proliferating and viral-infected cells; assay type: cell-based
[2] = test system: circulating tumor cells (CTCs); assay: Salicinium induction of apoptosis in cultured circulating tumor cells from patient samples; assay type: cell-based, human
Excerpt: Circulating tumor cells (CTCs) were isolated and characterized from patients with diverse diagnoses of cancer (including a wide variety of primary cancer types, with and without metastasis) using conventional flow cytometry modified to a multiparameter flow cytometric panel employing magnetic bead separation methods to characterize CTCs and isolate them from patient blood samples. In one exemplary modified procedure for isolating and characterizing CTCs from breast cancer patients, the flow cytometry panel included CD45-PE/Cy7, CD31-RPE, pan cytokeratin-PE/Cy5, c-met-PE and MUC-1(CD227)-FITC. CTCs were identified as CD45-/CD31-/PanCK+/MUC1+and metastatic cells as CD45-/c-met+. CTC isolation and cultivation utilized PBMCs from patients isolated using ficoll centrifugation methods and incubated with EpCAM magnetic beads to isolate the CTCs.
Isolated CTCs were cultured in serum free RPMI medium. […] Apoptosis quantification was based on observed cytoplasmic, nuclear and membrane changes diagnostic for apoptosis. In early stage of apoptosis, cells expand and become round, detach from adjacent cells or substrate and shrink. In the cytoplasm, the endoplasmic reticulum expands and turns vacuolar. In the nucleus, chromatin condenses in a crescent form around the nuclear membranes and becomes more basophilic. Eventually the nucleus fragments and cells convert to apoptotic bodies in containing fragmented nuclear and cellular materials. In vivo these apoptotic bodies are recognized and digested by phagocytes without raising inflammatory responses.
Data were analyzed using SPSS software, and T test methodology was used to compare data sets. A significance level of p<0.05 was considered statistically significant.

NK cells = assay: NK cell cancer-killing activity assay with immune cells from cancer patients; assay type: cell-based, human
Method: Immune cells were obtained from blood samples of 73 cancer patients. The capability of these immune cells to kill tumor cells in vitro was determined using a conventional cellular NK activity assay (Neri et al, Clin. Diagn. Lab. Immunol. 2001 November; 8(6): 1131-1135).
Control samples for these assays employed immune cells from patients diagnosed as having no detectable cancer. One exemplary test run (FIG. 4) compared nine patient samples side by side (samples 4 and 5 are controls, from patients with no cancer).

caspase-9 = assay: Caspase-9 levels in Salicinium-treated versus control CTC samples; assay type: cell-based, human; details: diverse CTCs from different cancer types
Excerpt: Additional studies evaluated caspase levels in CTC samples treated or untreated with Salicinium. Caspases are major executants of apoptosis. […] During apoptosis these pro-enzymes are converted into active enzymes which mediate apoptosis in part by degrading intracellular proteins, for example cytoskeletal proteins, causing profound morphological changes of cells. Caspase-3 is activated by upstream caspases (caspase-8, caspase-9 or caspase-10), and in turn Caspase-3 activates endonuclease CAD (caspase activated DNase). […] In apoptosis, ICAD is cut by caspase-3 and release CAD, followed by rapid fragmentation of DNA.
Caspase-9 levels were compared in control CTC samples and Salicinium-treated CTC samples according to conventional assay methods.

[3] = test system: EBV, hepatitis C, CMV and herpes II virus; assay: Viral load assays in treated patients; assay type: in vivo, human
Excerpt: These patients were selected as having been diagnosed with a heavy load, chronic viral infection and/or Stage IV cancer. Some of these subjects presented with only viral infection, and some with only Stage IV cancer, whereas a sizeable group of 64 subjects had co-morbid Stage IV cancer attended by a heavy load chronic viral infection. The principal viral subjects in these studies were Epstein Barr virus (EBV), hepatitis C virus, cytomegalovirus (CMV) and herpes virus.
Nagalase levels and viral load were quantified using conventional assays for each patient, before and after successive iv Salicinium® treatments, and after extended oral Salicinium follow-on therapy (using the […] and oral treatment protocol described in Example II, above).

[4] = test system: alpha-N-acetylgalactosaminidase (nagalase); details: human, in vivo
[5] = 967 patient CTC samples, helicidum 0.5 mg/ml, 24 hours

Substance: 4-(beta-D-allopyranosyloxy)-benzaldehyde [Salicinium]
- increase of Salicinium uptake compared to healthy cells ([1]; often): 2-5 times
- increase of Salicinium uptake compared to healthy cells ([1]; routinely, GLUT-mediated and other glycome transport): 50-100%
- increase of Salicinium uptake compared to healthy cells ([1]; up to): 10-15 times
- patient CTC samples showing no detectable apoptotic activity [2, 5]: 18%
- patient CTC samples showing statistically significant sensitivity to induction of apoptosis [2, 5]: 82%
- CTC cells in sample undergoing apoptosis ([2]; majority of other cancer types tested, single exposure, 24-hour test period): 20-25%
- CTC cells in sample undergoing apoptosis ([2]; more sensitive cancer types: lung, colorectal, sarcoma and renal cancer, single dose, 24 hours): 30-35%
- average increase in NK cell cancer-killing activity compared to basal (NK cells; cumulative samples (73 cancer patients), helicidum 0.5 mg/ml, 24 hours): 2.6 times
- increase in NK cell cancer-killing activity above basal activity (NK cells; exemplary test run, FIG. 4, cancer patient samples, helicidum 0.5 mg/ml, 24 hours): from about 50% to 2- or 3-fold, up to about 4-fold or higher
- increase in NK cell activity in control samples (NK cells; immune cells from patients with no detectable cancer, Salicinium present): little or no increase in NK cell activity
- caspase-9 levels in treated versus control CTC samples (caspase-9): potent induction of elevated caspase-9 levels
- treated subjects in whom high load viral infection became undetectable ([3]; EBV and herpes II subjects, within six months following initial iv treatment): 50%
- drop in median viral loads ([3]; EBV, hepatitis C, CMV and herpes II, first month): 20-25%
- additional drop in median viral loads ([3]; EBV, hepatitis C, CMV and herpes II, within three months after treatment): 20%
- viral subjects entirely clear of detectable virus ([3]; EBV, hepatitis C, herpes virus and CMV, after one year): 87%
- median nagalase level [4]: 0.78 Units
- patients with pronounced reductions in nagalase levels [4]: 83%
- study patients with nagalase levels below 0.95 Units (normal range) [4]: 86%
- study patients with nagalase levels below 1.0 units [4]: 72%

Reference: patent US20240316087A1, “Compositions And Methods For Inducing Apoptosis In Anaerobic Cells And Related Clinical Methods For Treating Cancer And Pathogenic Infections” (priority 2017, published 2024)
